Where a SMILES comes first, the peptide text is derived from it. Bridges are numbered along the chain shown (N, C = ends). [ ]: non-standard residue; d: D form. S5 = C=CCCC[C@](C)(N)C(=O)O
Tests used:
[1] = test system: MCF7 cells; assay: qPCR of CD36 and FABP4; format: cell-based, human; details: n = 3
[2] = target: T1, Nur77-PPARγ interaction (Homo sapiens, UniProt P22736); assay: Co-immunoprecipitation (IP: Nur77; IB: PPARγ, Trim13) in HEK293T cells; format: cell-based; details: 1 × 10^−5 M, 24 h
T1 construct: expressed in transfected cells; host or cells: HEK293T
T1 sequence (P22736 whole entry): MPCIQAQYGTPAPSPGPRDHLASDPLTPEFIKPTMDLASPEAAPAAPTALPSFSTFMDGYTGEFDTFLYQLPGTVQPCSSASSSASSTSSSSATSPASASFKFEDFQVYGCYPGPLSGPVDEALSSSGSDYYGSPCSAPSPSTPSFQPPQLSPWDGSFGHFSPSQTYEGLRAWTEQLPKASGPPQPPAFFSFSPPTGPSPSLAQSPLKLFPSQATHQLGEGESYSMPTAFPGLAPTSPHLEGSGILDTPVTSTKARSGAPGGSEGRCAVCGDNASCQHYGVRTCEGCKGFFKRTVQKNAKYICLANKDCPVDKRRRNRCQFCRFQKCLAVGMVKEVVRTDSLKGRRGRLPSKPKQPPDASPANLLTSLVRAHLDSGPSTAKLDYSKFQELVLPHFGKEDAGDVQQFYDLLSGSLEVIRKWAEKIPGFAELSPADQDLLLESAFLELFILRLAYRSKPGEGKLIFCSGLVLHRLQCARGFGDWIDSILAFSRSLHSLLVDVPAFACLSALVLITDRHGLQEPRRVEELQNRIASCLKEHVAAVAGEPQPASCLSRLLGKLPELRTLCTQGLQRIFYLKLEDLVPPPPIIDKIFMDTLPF
Protocol: HEK293T cells were seeded overnight in 10 cm culture dishes and transfected with the Nur77 and PPARγ plasmids for 48 h. After transfection, T‐CY14 and ST‐CY14 were incubated with the cells for 24 h. The cells were then collected and lysed in 500 µL precooled NP40 lysis buffer (Beyotime, P0013F), which contained 20x […] and 50x phosphatase inhibitor. All the samples were prepared at a concentration of 1 mg mL^−1, and 0.5 mg of the sample was subsequently incubated overnight at 4 °C with 2 µg of Nur77 antibody (Proteintech, 12235‐1‐AP). The samples were then incubated with Protein A/G PLUS‐Agarose (Santa Cruz, sc‐2003) for 4 h at 4 °C. The beads were collected through centrifugation and washed five times with NP40 lysis buffer. Finally, 5x loading buffer was added to the buffer containing the beads for Western blot analysis of PPARγ antibody (Proteintech, 16643‐1‐AP), Trim13 antibody (Abcam, ab234847), and β‐actin antibody (epizyme, LF201).

[3] = test system: MCF7 cells; assay: Energy metabolism analysis (Seahorse OCR); format: cell-based, human; details: MCF7, 24 h treatment, n = 3
Protocol: Cell energy metabolism analysis was conducted using a Seahorse cell energy metabolism analyzer (Agilent, USA). In brief, 8000 cells were seeded per well in a 96‐well XF96 plate (Agilent, 103794‐100) and cultured overnight. Subsequently, the cells were treated with various concentrations of peptides for 24 h. To prepare for metabolic stress injections, cartridge plates (Agilent, w15023) were hydrated with H2O for at least 12 h at 37 °C before the assay. 1 h before detection, the medium in each well was replaced with 180 µL XF calibrant solution (Agilent, 100840‐000), Afterward, the cell plate was replaced with 180 µL XF DMEM (Agilent, 103575‐100) with glucose (1 × 10^−2 M) (Agilent, 103577‐100), pyruvate (1 × 10^−3 M) (Agilent, 103578‐100) and glutamine (2 × 10^−3 M) (Agilent, 103579‐100) and the mixture was incubated in a CO2‐free incubator at 37 °C for 1 h. Then, 20 µL basic medium, 22 µL 1.5 × 10^−4 M oligomycin, 25 µL 1.5 × 10^−4 M FCCP, and 27 µL 5 × 10^−5 M ROT/AA (Agilent, 10315‐100) were added to wells A, B, C, and D, respectively, of the cartridge plates. The assay was carried out according to the manufacturer's instructions, and the OCR was reported in picomoles per min. The results were normalized to the cell number determined by the CCK‐8 assay.

[4] = CD spectroscopy, α-helicity; format: physicochemical; details: 5 × 10^−5 M peptide in H2O, 25 °C, 1 mm cuvette, 185-260 nm
Protocol: The detection wavelengths of the peptides were 214 and 254 nm. Solvent A: H2O (containing 0.1% TFA) and solvent B: acetonitrile (containing 0.1% TFA) were used as solvents in linear gradient mixtures. Peptide purification was performed by semi‐preparative HPLC using an XBridge Prep C18 column (19 × 250 mm, 10 µm particle size, flow rate of 20 mL min^−1). Solvents A and B were the same as those in the peptide analysis procedure. The peptides were dissolved in H2O to a final concentration of 5 × 10^−5 M. The purified peptide was detected using a mass spectrometer (6410 Triple Quad LC/MS, Agilent, USA) (Table S2, Supporting Information). The solvent was 80% methanol and 20% H2O (containing 0.1% formic acid). The CD spectra were obtained with a 1 mm quartz cuvette on a BRIGHT TIME Chirasca (Applied Photophysics, Britain) spectropolarimeter with a scan wavelength between 185–260 nm at 25 °C. The helicity of each peptide was calculated by the literature equation.^[ [24] ^]

[5] = test system: MCF7 cells; assay: Long-chain fatty acid uptake assay (BODIPY FL C16); format: cell-based, human; details: 24 h, BODIPY FL C16 1 h
Protocol: 5×10^4 MCF7 cells were seeded in confocal dishes and cultured overnight at 37 °C and 5% CO2. The cells were then incubated with a basic DMEM medium containing various concentrations of peptides (1/2/5/10/20 × 10^−6 M for flow cytometry and 10 × 10^−6 M for immunofluorescence) for 24 h. Afterward, 1 µL BODIPY FL C16 (1 × 10^−6 M, Thermo Fisher, D3821) was added to the confocal dishes and incubated with the cells for 1 h. Following incubation, the cell nuclei were stained with Hoechst for 8 min. Uptake of FA was monitored using flow cytometry (CytoFLEX, Beckman Coulter, USA) and DeltaVision OMX (GE, USA).

[6] = test system: MCF7 cells; assay: Western blot of Nur77, CD36 and FABP4; format: cell-based, human
Protocol: MCF7 and MDA‐MB‐231 cells were treated with various concentrations of peptide. The cells were then collected and lysed in NP40 lysis buffer. Total protein was quantified using a BCA assay kit (Beyotime, P0010S). The proteins were separated by SDS‐PAGE and transferred onto a PVDF membrane. The PVDF membrane was blocked in TBST containing 5% non‐fat milk, and then incubated with primary antibodies overnight at 4 °C. Subsequently, membranes were incubated with horseradish peroxidase‐conjugated antirabbit or antimouse IgG secondary antibody for 1 h at room temperature. The membranes were analyzed by a Tanon‐5200 Multi Gel Imaging Analysis System (Tanon) and quantified by ImageJ software.

[7] = test system: MCF7 cells; assay: Transwell cell migration analysis; format: cell-based, human; details: MCF7, 12 h
Protocol: 600 µL DMEM complete medium was added to the lower chamber of the Transwell. Next, 2×10^4 cells in 100 µL DMEM medium, containing 1, 2, 5, 10, or 2 × 10^−5 M peptides, were added to the upper chamber of the Transwell. The cells were incubated for 12 h at 37 °C and 5% CO2. After the incubation period, the medium was discarded, and the chamber was washed with PBS. The cells were then fixed with 4% paraformaldehyde for 20 min. The upper chamber was subsequently soaked in crystal violet for 20 min, washed with PBS, and observed under a microscope for analysis.

With `C[C@@H](O)[C@@H]1NC(=O)[C@H](CCCNC(=N)N)NC(=O)[C@H](CCCNC(=N)N)NC(=O)[C@@](C)(NC(=O)[C@H](Cc2ccccc2)NC(=O)CNC(=O)[C@H](CCCCN)NC(=O)[C@H](CS)NC(=O)CNC(=O)[C@H](CCC(=O)O)NC(=O)[C@@H](N)CS)CCCC=CCCC[C@@](C)(C(=O)N[C@@H](CCCNC(=N)N)C(=O)N[C@@H](Cc2ccc(O)cc2)C(=O)N[C@@H](Cc2ccc(O)cc2)C(=O)NCC(=O)N[C@@H](CCCNC(=N)N)C(=O)N[C@@H](CCCCN)C(=O)N[C@@H](CCCCN)C(=O)N[C@@H](CCCNC(=N)N)C(=O)N[C@@H](CCCNC(=N)N)C(=O)N[C@@H](CCC(N)=O)C(=O)N[C@@H](CCCNC(=N)N)C(=O)N[C@@H](CCCNC(=N)N)C(=O)N[C@@H](CCCNC(=N)N)C(N)=O)NC1=O` [ST-CY14] (H-CEGCKGF[S5]RRT[S5]RYYGRKKRRQRRR-NH2; staple 8-12) the “CD36 and FABP4 transcription (qPCR)” value [1] was “dose‐dependently inhibited CD36 and FABP4 expression at the transcriptional level”, the “Endogenous Nur77-PPARγ binding (Co-IP)” value [2] was “inhibited the binding between Nur77 and PPARγ” and the “Trim13 and ubiquitination of Nur77 (Co-IP)” value [2] was “obviously reduced the expression of Trim13 and attenuated the PPARγ‐induced ubiquitination of endogenous Nur77”. The “Oxygen consumption rate (OCR)” value [3] was “significantly reduced”, the “α-Helicity (CD)” value [4] was 12.01% and the “FA uptake (flow cytometry)” value ([5]; MCF7, 1-20 × 10^−6 M) was “dose‐dependent decrease in FA levels”. The “FA uptake (immunofluorescence)” value ([5]; MCF7, 1 × 10^−5 M) was “inhibited FA uptake”, the “CD36 and FABP4 protein expression (immunoblot)” value [6] was “inhibited the protein expression of CD36 and FABP4” and the “Nur77 protein expression (immunoblot)” value [6] was “increase in Nur77 expression”. The Transwell transmigration [7] was “inhibited the transmigration”.
